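Following 48 hours of exposure in 96-well plates, responses at five concentrations were used to interpolate endpoints linearly. At the GI50, growth is halved. TGI: total growth inhibition.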
How the values were obtained:
Test in all cases: NCI anticancer screen, dose series, 48 h
SR leukemia = system: SR leukemia
M14 melanoma = system: M14 melanoma
SNB-75 CNS = system: SNB-75 CNS
SF-539 CNS = system: SF-539 CNS
U251 CNS = system: U251 CNS
OVCAR-5 ovarian = system: OVCAR-5 ovarian
DU-145 prostate = system: DU-145 prostate
EKVX NSCLC = system: EKVX NSCLC
NCI/ADR-RES ovarian = system: NCI/ADR-RES ovarian
OVCAR-8 ovarian = system: OVCAR-8 ovarian

| SMILES | GI50 (SR leukemia) [µM] | TGI (SR leukemia) [µM] | GI50 (M14 melanoma) [µM] | TGI (M14 melanoma) [µM] | GI50 (SNB-75 CNS) [µM] | TGI (SNB-75 CNS) [µM] | GI50 (SF-539 CNS) [µM] | TGI (SF-539 CNS) [µM] | GI50 (U251 CNS) [µM] | TGI (U251 CNS) [µM] | GI50 (OVCAR-5 ovarian) [µM] | TGI (OVCAR-5 ovarian) [µM] | GI50 (DU-145 prostate) [µM] | TGI (DU-145 prostate) [µM] | GI50 (EKVX NSCLC) [µM] | TGI (EKVX NSCLC) [µM] | GI50 (NCI/ADR-RES ovarian) [µM] | TGI (NCI/ADR-RES ovarian) [µM] | GI50 (OVCAR-8 ovarian) [µM] | TGI (OVCAR-8 ovarian) [µM] |
| --- | --- | --- | --- | --- | --- | --- | --- | --- | --- | --- | --- | --- | --- | --- | --- | --- | --- | --- | --- | --- |
| COc1ccc2c(c1)cn1c3ccc(O)cc3[nH]c(=O)c21 | 0.0543 | 2.7 | 0.0984 | 1.21 | 0.227 | 13.6 | 0.175 | 1.16 | 0.143 | 1.9 | 2.79 | 21.5 | 0.234 | 8.74 | 0.797 | 19.2 | 0.187 | 11.8 | 0.428 | 2.82 |
| COc1ccc(/C=C(/C)[N+](=O)[O-])cc1 |  | 3.56 |  | 7.92 |  | 3.4 |  | 3.68 |  | 3.05 |  | 9.47 |  | 6.26 |  | 4.91 |  | 13.6 |  | 5.75 |
| NC(=S)N/N=C\c1nccc2c(N)cccc12 | 0.0398 | > 35.8 | 0.153 | 0.317 | 0.139 | 87.5 | 0.146 | 0.757 | 0.237 |  | 1.14 | > 100 | 0.278 | 2.38 | 0.803 | > 100 | 0.375 | 17.3 | 0.222 |  |
| CNC(=O)OC1C(O[C@H]2C[C@H]3[C@@H]4CC=C5C[C@@H](O)CC[C@]5(C)[C@H]4CC[C@]3(C)[C@H]2[C@H](C)C(=O)CCC(C)C)OCC(O)C1OC1OCC(O)C(O)C1OC(=O)c1ccc(OC)cc1 (stereo partly specified) | 0.0112 | 3.22 | 0.0137 | 0.0757 | 0.00628 | 4.97 | < 0.00275 | 0.0185 | 0.00334 | 3.87 | 0.235 | 5.01 | 0.0246 | 6.12 | 0.0396 | 3.47 | 7.1 | 27.5 | 2.82 | 11.2 |
| C/C1=C/C(=O)O[C@@H]2C[C@@H](CC[C@H](C)/C=C\C=C\CC1)O[C@@](OCCc1ccccc1)([C@@H]1CSC(=O)N1)C2 | 0.379 | > 17.5 | 0.204 | > 17.5 | 0.022 | 0.0597 | 0.0543 | > 17.5 | 0.189 | > 17.5 | 0.0554 | > 17.5 | 0.282 | > 17.5 | 0.106 | > 17.5 | 2.95 | > 17.5 | 1.11 | > 17.5 |
| O=c1c2ccccc2nc(-c2ccccc2)n1O |  | > 100 |  | > 100 |  | > 100 |  | > 100 |  | > 100 |  | > 100 |  | > 100 |  | > 100 |  | > 100 |  | > 100 |
| COc1ccc(CC(NC(=O)[C@H](C)NC(=O)CN2CCOCC2)C(=O)N[C@@H](Cc2ccccc2)C(=O)[C@@]2(C)CO2)cc1 (stereo partly specified) | 0.064 |  | 0.284 | 2.5 | 0.175 | 0.427 | 0.221 | 0.591 | 0.271 | 1.07 | 0.272 | 1.19 | 0.437 | 5.71 | 0.469 | > 100 | 19.8 | > 100 | 0.342 |  |
| OCC#Cc1ccccc1C#Cc1ccc(C#Cc2ccccc2C#CCO)s1 | 36.9 | > 100 | 23.3 | 49 | 48.1 | 78.7 | 18.1 | 34.2 | 20.1 | 42.3 | 22.1 | 46.5 | 14.9 | 28.1 | 19.9 | 43.1 | 21.1 | 36 | 21.2 | 45.6 |
| O=C(NNS(=O)(=O)c1ccc(F)cc1)c1cccnc1Nc1ccc(Cl)cc1Cl | 22.9 | 67.6 | 46.5 | > 100 | 25.5 | > 100 | 26 | 73.7 | 29.1 | > 100 | 52.2 | > 100 | 22.9 | 55.4 | 29.5 | > 100 | 39.8 | > 100 | 26.9 | > 100 |
| COc1cc2cc(Oc3ccc(NC(=O)Nc4ccc(Cl)c(C(F)(F)F)c4)cc3)c(C)nc2cc1OC | 0.831 | 2.65 | 1.25 | 5.25 | 1.03 | 4.9 | 1.96 | 8.39 | 1.03 | 3.78 | 1.93 | 6.22 | 1.24 | 5.11 | 1.01 | 3.75 | 1.06 | 4.91 | 1.04 | 4.55 |

Source: PubChem BioAssay (NCI)
